Experimental data: publication PMC8286840, “Identifying SARS-CoV-2 antiviral compounds by screening for small molecule inhibitors of Nsp3 papain-like protease” (Biochemical Journal, 2021)
Where a name gives a salt, the structure may show the parent alone. Read-outs that look alike come from different tables or passages of the source.

Tests used:
[1] = target: T1, SARS-CoV-2 PLpro (nsp3 1564–1878) (Severe acute respiratory syndrome coronavirus 2, UniProt P0DTD1); experiment: biochemical; set-up: FRET-quenched peptide (Pro3) cleavage by PLpro, 10 min pre-incubation, slope over 20 min, normalised to no-compound control; details: read-out: % of control remaining
[2] = target: T1, SARS-CoV-2 PLpro (nsp3 1564–1878); experiment: biochemical; set-up: FRET-quenched peptide (Pro3) cleavage by PLpro, 10 min pre-incubation, slope over 20 min, normalised to no-compound control; details: read-out: % of control remaining; remark: listed apart in the source

c1ccc2c(c1)[I+]c1ccccc1-2 [Diphenyleneiodonium chloride]
remaining activity at 3.75 µM ([1]; Well no.=591, high concentration screen): 105%
remaining activity at 1.25 µM ([2]; Well no.=591, low concentration screen): 99.6%

CN1CCC(OC(c2ccccc2)c2ccccc2)CC1 [Diphenylpyraline (hydrochloride)]
remaining activity at 3.75 µM ([1]; Well no.=6853, high concentration screen): 102%
remaining activity at 1.25 µM ([2]; Well no.=6853, low concentration screen): 100%

Cn1c(=O)c2c(ncn2CC(O)CO)n(C)c1=O (centres unmarked) [Diphylline]
remaining activity at 3.75 µM ([1]; Well no.=7387, high concentration screen): 105%
remaining activity at 3.75 µM ([1]; Well no.=8273, high concentration screen): 98.7%
remaining activity at 1.25 µM ([2]; Well no.=7387, low concentration screen): 106%
remaining activity at 1.25 µM ([2]; Well no.=8273, low concentration screen): 101%

CCCN(CCC)CCc1ccc(O)c(O)c1 [Dipropyldopamine hydrobromide]
remaining activity at 3.75 µM ([1]; Well no.=684, high concentration screen): 98.3%
remaining activity at 1.25 µM ([2]; Well no.=684, low concentration screen): 98.3%

CC[C@H](C)[C@H](N)C(=O)N1CCC[C@H]1C(=O)N[C@H](C(=O)O)[C@@H](C)CC [Diprotin A (TFA)]
remaining activity at 3.75 µM ([1]; Well no.=8464, high concentration screen): 101%
remaining activity at 1.25 µM ([2]; Well no.=8464, low concentration screen): 104%

CC(C)=CCC[C@](C)(O)[C@H]1CC[C@]2(C)[C@@H]1CC[C@@H]1[C@@]3(C)CCC(=O)C(C)(C)[C@@H]3CC[C@]12C [Dipterocarpol]
remaining activity at 3.75 µM ([1]; Well no.=3204, high concentration screen): 106%
remaining activity at 1.25 µM ([2]; Well no.=3204, low concentration screen): 105%

OCCN(CCO)c1nc(N2CCCCC2)c2nc(N(CCO)CCO)nc(N3CCCCC3)c2n1 [Dipyridamole]
remaining activity at 3.75 µM ([1]; Well no.=682, high concentration screen): 100%
remaining activity at 3.75 µM ([1]; Well no.=1863, high concentration screen): 94.7%
remaining activity at 1.25 µM ([2]; Well no.=682, low concentration screen): 103%
remaining activity at 1.25 µM ([2]; Well no.=1863, low concentration screen): 95.1%

O=c1ccn([C@@H]2O[C@H](COP(=O)(O)OP(=O)(O)OP(=O)(O)OP(=O)(O)OC[C@H]3O[C@@H](n4ccc(=O)[nH]c4=O)[C@H](O)[C@@H]3O)[C@@H](O)[C@H]2O)c(=O)[nH]1 [Diquafosol (tetrasodium)]
remaining activity at 3.75 µM ([1]; Well no.=8095, high concentration screen): 100%
remaining activity at 3.75 µM ([1]; Well no.=8837, high concentration screen): 87.9%
remaining activity at 1.25 µM ([2]; Well no.=8837, low concentration screen): 101%

O=C(O)c1cc(=O)c2c(OCC(O)COc3cccc4oc(C(=O)O)cc(=O)c34)cccc2o1 [Disodium Cromoglycate]
remaining activity at 3.75 µM ([1]; Well no.=1857, high concentration screen): 100%
remaining activity at 1.25 µM ([2]; Well no.=1857, low concentration screen): 102%

CC(C)N(CCC(C(N)=O)(c1ccccc1)c1ccccn1)C(C)C (centres unmarked) [Disopyramide phosphate salt]
remaining activity at 3.75 µM ([1]; Well no.=5508, high concentration screen): 103%
remaining activity at 1.25 µM ([2]; Well no.=5508, low concentration screen): 105%

CC(C)N(CCC(C(N)=O)(c1ccccc1)c1ccccn1)C(C)C (centres unmarked) [Disopyramide phosphate]
remaining activity at 3.75 µM ([1]; Well no.=436, high concentration screen): 98.8%
remaining activity at 1.25 µM ([2]; Well no.=436, low concentration screen): 97.6%

CC(C)N(CCC(C(N)=O)(c1ccccc1)c1ccccn1)C(C)C (centres unmarked) [Disopyramide]
remaining activity at 3.75 µM ([1]; Well no.=390, high concentration screen): 101%
remaining activity at 1.25 µM ([2]; Well no.=390, low concentration screen): 101%

CCCC(CCC)C(=O)O [Divalproex sodium]
remaining activity at 3.75 µM ([1]; Well no.=5341, high concentration screen): 95.4%
remaining activity at 1.25 µM ([2]; Well no.=5341, low concentration screen): 97.2%

CC(CCc1ccc(O)cc1)NCCc1ccc(O)c(O)c1 (centres unmarked) [Dobutamine hydrochloride]
remaining activity at 3.75 µM ([1]; Well no.=587, high concentration screen): 99.5%
remaining activity at 1.25 µM ([2]; Well no.=587, low concentration screen): 97.5%

CC(CCc1ccc(O)cc1)NCCc1ccc(O)c(O)c1 (centres unmarked) [Dobutamine.HCl]
remaining activity at 3.75 µM ([1]; Well no.=1781, high concentration screen): 103%
remaining activity at 1.25 µM ([2]; Well no.=1781, low concentration screen): 101%

CC1=C(C)C(=O)C(CCCCC#CCCCC#CCO)=C(C)C1=O [Docebenone]
remaining activity at 3.75 µM ([1]; Well no.=1917, high concentration screen): 90.2%
remaining activity at 1.25 µM ([2]; Well no.=1917, low concentration screen): 90.8%

CCCCCCCCCCCCCCCCCCCCCC(=O)O [Docosanoic acid]
remaining activity at 3.75 µM ([1]; Well no.=4456, high concentration screen): 99.7%
remaining activity at 1.25 µM ([2]; Well no.=4456, low concentration screen): 100%

CC/C=C\C/C=C\C/C=C\C/C=C\C/C=C\CCCCCC(=O)O [Docosapentaenoic acid]
remaining activity at 3.75 µM ([1]; Well no.=4347, high concentration screen): 105%
remaining activity at 3.75 µM ([1]; Well no.=4492, high concentration screen): 91.7%
remaining activity at 1.25 µM ([2]; Well no.=4347, low concentration screen): 105%
remaining activity at 1.25 µM ([2]; Well no.=4492, low concentration screen): 93.7%

CCCCC(CC)COC(=O)CC(C(=O)OCC(CC)CCCC)S(=O)(=O)O (centres unmarked) [Docusate Sodium]
remaining activity at 3.75 µM ([1]; Well no.=8348, high concentration screen): 92.6%
remaining activity at 1.25 µM ([2]; Well no.=8348, low concentration screen): 94.3%

CCCCCCCCCCCC(=O)O [Dodecanoic acid]
remaining activity at 3.75 µM ([1]; Well no.=4256, high concentration screen): 94.8%
remaining activity at 1.25 µM ([2]; Well no.=4256, low concentration screen): 101%

CN(CCOc1ccc(NS(C)(=O)=O)cc1)CCc1ccc(NS(C)(=O)=O)cc1 [Dofetilide]
remaining activity at 3.75 µM ([1]; Well no.=1659, high concentration screen): 106%
remaining activity at 1.25 µM ([2]; Well no.=1659, low concentration screen): 108%

O=C(O[C@@H]1C[C@@H]2C[C@H]3C[C@H](C1)N2CC3=O)c1c[nH]c2ccccc12 [Dolasetron (Mesylate hydrate)]
remaining activity at 3.75 µM ([1]; Well no.=7381, high concentration screen): 98%
remaining activity at 1.25 µM ([2]; Well no.=7381, low concentration screen): 108%

O=C(O[C@@H]1C[C@@H]2C[C@H]3C[C@H](C1)N2CC3=O)c1c[nH]c2ccccc12 [Dolasetron]
remaining activity at 3.75 µM ([1]; Well no.=1870, high concentration screen): 96.3%
remaining activity at 3.75 µM ([1]; Well no.=6235, high concentration screen): 105%
remaining activity at 1.25 µM ([2]; Well no.=1870, low concentration screen): 96.1%
remaining activity at 1.25 µM ([2]; Well no.=6235, low concentration screen): 106%

C/C(=C/C=C/[C@@H](C)C(=O)O)[C@H]1CN[C@H](C(=O)O)[C@H]1CC(=O)O [Domoic acid]
remaining activity at 3.75 µM [1]: 102%
remaining activity at 1.25 µM [2]: 99.4%

O=c1[nH]c2ccccc2n1CCCN1CCC(n2c(=O)[nH]c3cc(Cl)ccc32)CC1 [Domperidone]
remaining activity at 3.75 µM ([1]; Well no.=496, high concentration screen): 104%
remaining activity at 3.75 µM ([1]; Well no.=1598, high concentration screen): 99.4%
remaining activity at 3.75 µM ([1]; Well no.=7485, high concentration screen): 89.8%
remaining activity at 1.25 µM ([2]; Well no.=496, low concentration screen): 107%
remaining activity at 1.25 µM ([2]; Well no.=1598, low concentration screen): 96.5%
remaining activity at 1.25 µM ([2]; Well no.=7485, low concentration screen): 94%

NCCc1ccc(O)c(O)c1 [Dopamine (hydrochloride)]
remaining activity at 3.75 µM ([1]; Well no.=6268, high concentration screen): 96.3%
remaining activity at 1.25 µM ([2]; Well no.=6268, low concentration screen): 96.9%

NCCc1ccc(O)c(O)c1 [Dopamine hydrochloride]
remaining activity at 3.75 µM ([1]; Well no.=518, high concentration screen): 99.9%
remaining activity at 1.25 µM ([2]; Well no.=518, low concentration screen): 102%

C[C@@H](O)[C@H]1C(=O)N2C(C(=O)O)=C(S[C@@H]3CN[C@H](CNS(N)(=O)=O)C3)[C@H](C)[C@H]12 [Doripenem Hydrate]
remaining activity at 3.75 µM ([1]; Well no.=5203, high concentration screen): 104%
remaining activity at 1.25 µM ([2]; Well no.=5203, low concentration screen): 103%

CCN[C@H]1C[C@H](C)S(=O)(=O)c2sc(S(N)(=O)=O)cc21 [Dorzolamide HCl]
remaining activity at 3.75 µM ([1]; Well no.=5205, high concentration screen): 95%
remaining activity at 1.25 µM ([2]; Well no.=5205, low concentration screen): 92.8%

CCN[C@H]1C[C@H](C)S(=O)(=O)c2sc(S(N)(=O)=O)cc21 [Dorzolamide.HCl]
remaining activity at 3.75 µM ([1]; Well no.=1878, high concentration screen): 96.1%
remaining activity at 1.25 µM ([2]; Well no.=1878, low concentration screen): 96.7%

CCN1CC(CCN2CCOCC2)C(c2ccccc2)(c2ccccc2)C1=O (centres unmarked) [Doxapram HCl]
remaining activity at 3.75 µM ([1]; Well no.=5120, high concentration screen): 96.1%
remaining activity at 1.25 µM ([2]; Well no.=5120, low concentration screen): 98.8%

COc1cc2nc(N3CCN(C(=O)C4COc5ccccc5O4)CC3)nc(N)c2cc1OC (centres unmarked) [Doxazosin (mesylate)]
remaining activity at 3.75 µM ([1]; Well no.=8187, high concentration screen): 102%
remaining activity at 1.25 µM ([2]; Well no.=8187, low concentration screen): 105%
